Source: PMC6278354, “Investigation of New Orexin 2 Receptor Modulators Using In Silico and In Vitro Methods” (Molecules, 2018)
Like-named read-outs stand apart in the source and are kept apart here.

Columns and labels:
[1] = PAMPA assay for prediction of BBB penetration (polar brain lipid); conditions: for Papp at 30 µM: PAMPA, pH 7.4; for CNS Predicted Availability: class from PAMPA Pe; for BBB permeation via passive diffusion, in words: from PAMPA Pe
[2] = MTT cytotoxicity assay; format: cell-based; conditions: Chinese hamster
Protocol: (§1) Adherent epithelial CHO-K1 cell line (Chinese hamster ovary, ATCC, #CCL-61, Manassas, VA, USA) was grown in Ham’s F12 Nutrient Mixture supplemented with 10% heat-inactivated FBS and antibiotics 1% penicillin (10,000 U/mL)/streptomycin (10,000 µg/mL) at 37 °C, 95% humidity and under 5% CO2.
(§2) The cytotoxic effect of the studied compounds was assessed using standard MTT (3-[4–dimethylthiazol-2-yl]-2,5-diphenyltetrazolium bromide) assay on the CHO-K1 cell line. […] Cells were seeded in 96-well plates and exposed to the tested compounds in the medium (100 µL) for 24 h at 37 °C, 95% humidity, and in an atmosphere of 5% CO2. Subsequently, this medium was replaced by the medium containing MTT (10 µM) and incubated for another 3–4 h. After that, the medium with MTT was removed and formazan crystals were dissolved by the addition of 100 µL DMSO. Viability of the cells was estimated spectrophotometrically by the amount of produced formazan. The absorbance was measured at 570 nm, with 650 nm as a reference wavelength on a Synergy HT reader (Biotek, USA). Results were expressed as IC50 from the control-subtracted triplicates (in comparison with untreated control) using non-linear regression (four parameters) in GraphPad Prism 7.03 (GraphPad Software Inc., CA, USA).

[3] = molecular target: T1, human OX2R (Homo sapiens, UniProt O43614); assay: OX2R calcium assay, agonist mode (Fluo-3, CHO-K1 cells stably expressing human OX2R); format: cell-based; conditions: for agonistic effect in screening: 10 μM ligand; for agonistic effect at higher concentrations: higher concentrations than 10 μM, data not shown
T1 construct: host or cells: CHO-K1
T1 sequence (O43614 1-444): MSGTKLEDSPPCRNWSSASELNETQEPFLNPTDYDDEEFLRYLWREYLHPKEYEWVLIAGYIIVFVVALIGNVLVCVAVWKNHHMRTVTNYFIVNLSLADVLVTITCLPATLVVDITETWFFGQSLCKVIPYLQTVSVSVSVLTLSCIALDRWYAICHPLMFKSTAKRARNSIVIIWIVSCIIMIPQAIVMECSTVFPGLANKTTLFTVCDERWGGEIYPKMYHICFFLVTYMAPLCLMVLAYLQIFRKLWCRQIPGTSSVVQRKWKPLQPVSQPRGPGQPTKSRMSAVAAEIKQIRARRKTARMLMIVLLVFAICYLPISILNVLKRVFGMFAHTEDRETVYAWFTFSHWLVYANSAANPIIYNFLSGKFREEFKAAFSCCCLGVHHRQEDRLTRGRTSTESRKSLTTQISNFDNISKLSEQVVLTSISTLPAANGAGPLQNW

[4] = in vitro; conditions: PAMPA, pH 7.4
[5] = molecular target: T1, human OX2R; assay: OX2R calcium assay, antagonist mode against orexin A (Fluo-3, CHO-K1 cells stably expressing human OX2R); format: cell-based; conditions: for IC50: 0.1 μM orexin A as agonist, mean ± SEM, n = 3, read-out: IC50 antagonistic effect in orexin A-OX2R interaction; for antagonistic screening: reduction of orexin A response signal: ligand 10 μM, orexin A 100 nM, data not shown
[6] = PAMPA, pH 7.4
[7] = tested on: CHO-K1 cell line; assay: MTT cytotoxicity assay; format: cell-based; conditions: Chinese hamster, 24 h
Protocol: as §1, §2

[8] = CHO-K1 cells, MTT, 24 h exposure, read-out: Cytotoxicity CHO-K1 IC50 ± SEM

O=C1CN(C(=O)CN2CCN(S(=O)(=O)c3ccc4ccccc4c3)CC2)c2ccccc2N1 [Ligand L2, 4-{2-[4-(naphthalene-2-sulfonyl)piperazin-1-yl]acetyl}-1,2,3,4-tetrahydroquinoxalin-2-one]
Papp at 30 µM [1]: 31.6 ± 3.4 ×10⁻⁶ cm/s | CNS Predicted Availability [1]: CNS + (CNS + (high BBB permeation predicted): Pe (×10^−6 cm s^−1) > 4.0) | IC50 at 24 h [2, 8]: 165 ± 5.36 µM

CCn1nnc2cc(C(=O)Nc3ccc4[nH]c(-c5cc(F)ccc5F)nc4c3)ccc21 [Ligand L11, N-[2-(2,5-difluorophenyl)-1H-1,3-benzodiazol-5-yl]-1-ethyl-1H-1,2,3-benzotriazole-5-carboxamide]
agonistic effect in screening [3]: subtle agonistic effect | agonistic effect at higher concentrations [3]: neither an agonistic nor dose-response effect | IC50 at 24 h [2, 8]: 28.3 ± 4.07 µM

CC1CCCC(=O)CCC/C=C/c2cc3c(c(O)c2C(=O)O1)C(c1cc2ccccc2nc1O)CC(=O)O3 (stereo not shown) [Ligand L5, (12E)-22-hydroxy-20-(2-hydroxyquinolin-3-yl)-4-methyl-3,17-dioxatricyclo[12.8.0.0^16,21]docosa-1(14),12,15,21-tetraene-2,8,18-trione]
Papp [4]: 12 ± 2.5 ×10⁻⁶ cm/s | CNS Predicted Availability [1]: CNS + (CNS + (high BBB permeation predicted): Pe (×10^−6 cm s^−1) > 4.0) | IC50 at 24 h ([2]; MTT, 24 h exposure, read-out: Cytotoxicity CHO-K1 IC50 ± SEM): 59 ± 6.41 µM

CNC(=C[N+](=O)[O-])NCCSCc1ccc(CN(C)C)o1 [Ranitidine, reference compound]
Papp [4]: 0.04 ± 0.02 ×10⁻⁶ cm/s | CNS Predicted Availability [1]: CNS − (CNS − (low BBB permeation predicted): Pe (×10^−6 cm s^−1) < 2.0)

Cc1ccccc1Cn1cc(/C=C2\C(=N)N3N=C(CC(=O)N4CCCC4)SC3=NC2=O)c2ccccc21 [Ligand L7, (6E)-5-imino-6-({1-[(2-methylphenyl)methyl]-1H-indol-3-yl}methylidene)-2-[2-oxo-2-(pyrrolidin-1-yl)ethyl]-5H,6H,7H-[1,3,4]thiadiazolo[3,2-a]pyrimidin-7-one]
Papp at 30 µM [1]: 3.37 ± 2.1 ×10⁻⁶ cm/s | Pe ± SEM ([1]; PAMPA-BBB, PBS pH 7.4, 30 µM donor, at least three measurements): 2.0–4.0 ×10^−6 cm s^−1 | CNS Predicted Availability [1]: CNS +/− (CNS +/− (BBB permeation uncertain): Pe (×10^−6 cm s^−1) from 4.0 to 2.0) | BBB permeation via passive diffusion, in words [1]: uncertain permeation through the BBB | IC50 [5]: 25 ± 2.6 µM | antagonistic screening: reduction of orexin A response signal [5]: significantly reduce the signal of orexin A response | IC50 at 24 h [2, 8]: 61.8 ± 3.74 µM

O=C(c1cc(-c2ccco2)nc2ccccc12)N1CCN(C(=O)C2COc3ccccc3O2)CC1 (stereo not shown) [Ligand L3, 4-[4-(2,3-dihydro-1,4-benzodioxine-2-carbonyl)piperazine-1-carbonyl]-2-(furan-2-yl)quinoline]
Papp at 30 µM [1]: 17.9 ± 2.2 ×10⁻⁶ cm/s | CNS Predicted Availability [1]: CNS + (CNS + (high BBB permeation predicted): Pe (×10^−6 cm s^−1) > 4.0) | IC50 [5]: 8.9 ± 0.43 µM | antagonistic screening: reduction of orexin A response signal [5]: significantly reduce the signal of orexin A response | IC50 at 24 h [2, 8]: 279 ± 36.6 µM

O=C(Nc1ccc2n(c1=O)C[C@H]1C[C@@H]2CN(C(=O)c2ccccn2)C1)c1ccccc1 [Ligand L8, N-[(1R,9S)-6-oxo-11-(pyridine-2-carbonyl)-7,11-diazatricyclo[7.3.1.0^2,7]trideca-2,4-dien-5-yl]benzamide]
Pe ± SEM [6]: 2.0–4.0 | Papp at 30 µM [4]: 4 ± 0.3 ×10⁻⁶ cm/s | CNS Predicted Availability [1]: CNS +/− (CNS +/− (BBB permeation uncertain): Pe (×10^−6 cm s^−1) from 4.0 to 2.0) | BBB permeation via passive diffusion, in words [1]: uncertain permeation through the BBB | IC50 [7]: ~700 µM | IC50 at 24 h ([2]; Cytotoxicity CHO-K1 IC50 ± SEM): > 700 µM

O=C(c1cc(-c2ccco2)nc2ccccc12)N1CCN(c2ccc(=O)n(-c3ccc(F)cc3)n2)CC1 [Ligand L4, 2-(4-fluorophenyl)-6-{4-[2-(furan-2-yl)quinoline-4-carbonyl]piperazin-1-yl}-2,3-dihydropyridazin-3-one]
Papp at 30 µM [1]: 18.3 ± 0.1 ×10⁻⁶ cm/s | CNS Predicted Availability [1]: CNS + (CNS + (high BBB permeation predicted): Pe (×10^−6 cm s^−1) > 4.0) | IC50 [5]: 2.2 ± 0.47 µM | antagonistic screening: reduction of orexin A response signal [5]: significantly reduce the signal of orexin A response | IC50 at 24 h [2, 8]: 99.8 ± 10.7 µM

O=C(Cn1nc(-c2ccc(F)cc2)oc1=O)N1CCCC1c1ccc2c(c1)OCCCO2 (stereo not shown) [Ligand L9, 3-{2-[2-(3,4-dihydro-2H-1,5-benzodioxepin-7-yl)pyrrolidin-1-yl]-2-oxoethyl}-5-(4-fluorophenyl)-2,3-dihydro-1,3,4-oxadiazol-2-one]
Papp at 30 µM [1]: 32.3 ± 1.5 ×10⁻⁶ cm/s | CNS Predicted Availability [1]: CNS + (CNS + (high BBB permeation predicted): Pe (×10^−6 cm s^−1) > 4.0) | agonistic effect in screening [3]: subtle agonistic effect | agonistic effect at higher concentrations [3]: neither an agonistic nor dose-response effect | IC50 at 24 h [2, 8]: 144 ± 11.1 µM

Cn1c(=O)c2c(-c3ccccc3)n3c(c2n(C)c1=O)C(c1coc2ccccc2c1=O)OCC3 (stereo not shown) [Ligand L6, 3,5-dimethyl-13-(4-oxo-4H-chromen-3-yl)-8-phenyl-12-oxa-3,5,9-triazatricyclo[7.4.0.0^2,7]trideca-1,7-diene-4,6-dione]
Papp at 30 µM [1]: 17.6 ± 6.4 ×10⁻⁶ cm/s | CNS Predicted Availability [1]: CNS + (CNS + (high BBB permeation predicted): Pe (×10^−6 cm s^−1) > 4.0) | IC50 [5]: 12.2 ± 3.1 µM | antagonistic screening: reduction of orexin A response signal [5]: significantly reduce the signal of orexin A response | agonistic effect in screening [3]: subtle agonistic effect | agonistic effect at higher concentrations [3]: neither an agonistic nor dose-response effect | IC50 at 24 h [2, 8]: > 100 µM

O=C(c1cnn(-c2ncc3c(n2)-c2ccccc2CC3)c1C1CC1)N1CCN(Cc2ccccc2)CC1 [Ligand L1, 1-(1-{5H,6H-benzo[h]quinazolin-2-yl}-5-cyclopropyl-1H-pyrazole-4-carbonyl)-4-benzylpiperazine]
Papp at 30 µM [1]: 10.2 ± 0.9 ×10⁻⁶ cm/s | CNS Predicted Availability [1]: CNS + (CNS + (high BBB permeation predicted): Pe (×10^−6 cm s^−1) > 4.0) | IC50 at 24 h [2, 8]: 78.8 ± 6.88 µM

O=C1CC(C(=O)Nc2cccc(-c3ccc4c(c3)CCO4)c2)c2ccccc2N1 (stereo not shown) [Ligand L10, N-[3-(2,3-dihydro-1-benzofuran-5-yl)phenyl]-2-oxo-1,2,3,4-tetrahydroquinoline-4-carboxamide]
Papp at 30 µM [1]: 18.9 ± 2.4 ×10⁻⁶ cm/s | CNS Predicted Availability [1]: CNS + (CNS + (high BBB permeation predicted): Pe (×10^−6 cm s^−1) > 4.0) | IC50 [5]: 27.8 ± 0.5 µM | antagonistic screening: reduction of orexin A response signal [5]: significantly reduce the signal of orexin A response | IC50 at 24 h [2, 8]: 53.9 ± 5.03 µM
